We go through five compounds from publication PMC9926630, “Simultaneous attenuation of hyperglycemic memory-induced retinal, pulmonary, and glomerular dysfunctions by proinsulin C-peptide in diabetes” (BMC Medicine, 2023).

One data set concerns TGase. Kind of data set: In situ TGase activity in endothelial cells under HGM conditions. The class given is cell-based. To be noted: 30 mM glucose 3 days then 5.5 mM 3 days, 1 nM K9-C-peptide or K8 polypeptide, 0.5 µM Trolox, 50 µM cystamine, 1 nM human C-peptide, confocal, n = 4. Here is the method: (§1) HRECs were purchased from the Applied Cell Biology Research Institute (Cell Systems, Kirkland, WA) and grown on 2% gelatin-coated plates in M199 medium supplemented with 20% FBS, 3 ng/mL basic fibroblast growth factor, 100 U/mL penicillin, and […] streptomycin in a humidified 5% CO2 incubator. Cells were authenticated by short tandem repeat profiling, and subconfluent cells after 7–9 passages were used in experiments. For the experiments, endothelial cells were incubated for 12 h in a low-serum medium supplemented with 2% fetal bovine serum, 0.1 ng/mL basic fibroblast growth factor, and antibiotics. The cells were then treated with 5.5 mM D-glucose for 6 days (normal glucose), 30 mM glucose for 6 days (high glucose), or 30 mM glucose for 3 days followed by 5.5 mM glucose for 3 days (HGM).
In situ TGase transamidating activity was measured by confocal microscopic assay as previously described. Briefly, HRECs were treated with 1 mmol/L 5-(biotinamido)pentylamine for 1 h and fixed with 3.7% formaldehyde for 30 min. The cells were then permeabilized with 0.2% Triton X-100 in PBS for 30 min and stained with FITC-conjugated streptavidin (1:200; MilliporeSigma, Burlington, MA, USA) for 1 h. The fluorescence intensities of single stained cells were determined by confocal microscopy (K1-Fluo) for 30 randomly selected cells in three microscopic fields per experiment (n = 4).

Data set [1] relates to human retinal endothelial cells (HRECs). Kind of data set: Intracellular ROS levels in endothelial cells under HGM conditions. The data set is classed as cell-based. Particulars: 30 mM glucose 3 days then 5.5 mM 3 days; 1 nM K9-C-peptide or K8 polypeptide, 0.5 µM Trolox, 50 µM cystamine, 1 nM human C-peptide; CellROX green and H2DCFDA, n = 4. As to the method:
as §1
Intracellular ROS levels were measured in HRECs using CellROX™ green reagent and 2′,7′-dichlorodihydrofluorescein diacetate (Thermo Fisher Scientific, Waltham, MA, USA) as previously described. Labeled cells on coverslips were mounted in a perfusion chamber and analyzed by confocal microscopy (K1-Fluo). ROS levels were determined at the single-cell level for 30 randomly selected cells in three microscopic fields per experiment (n = 4).

The conditions of data set [2]: cited from earlier work. As to the method: However, C-peptide is limited in clinical applications by its short circulating half-life (approximately 30 min) and costly chemical synthesis. Recently, we prepared K9-C-peptide, a recombinant human C-peptide conjugated to ELP, to facilitate long-term systemic delivery of C-peptide. ELPs, derived from human elasti ...
Data set [3] concerns type 1 and type 2 diabetic mice. To be noted: cited from earlier work. The text has this:
The coincidence of diabetic complications, including DR, DPN, and DKD, has been reported in a number of clinical studies. Among the potential microvascular complications of diabetes, the coincidence of DR and DKD was reported to be high in epidemiological studies of both type 1 and type 2 diabetes. Co-occurrence of microvascular complications has also been observed in diabetic animal models including diabetic mice and rats. Moreover, increased mortality was reported in patients with both DR and systemic vascular diseases, including DKD [[ ...

The nature of data set [4]: Human C-peptide level in mouse serum (ELISA). The class given is in vivo. To be noted: HGM mice (STZ diabetic, insulin by osmotic pump 4 weeks), 4 weeks after s.c. K9-C-peptide 100 mg/kg or K8 polypeptide 83 mg/kg, injected twice, mean ± SD, n = 6. As to the method:
(§2) One day after implantation of the osmotic pumps, human C-peptide was systemically supplemented by subcutaneous implantation of K9-C-peptide depots as previously described. […] The K9-C-peptide and K8 polypeptide were prepared by inverse transition cycling as previously described. Four weeks after the subcutaneous injections, sera and retinal, lung, and kidney tissues were obtained from the mice and analyzed. All animal experiments conformed to the Guide for the Care and Use of Laboratory Animals (National Institutes of Health; Bethesda, MD, USA) and were approved by the Institutional Animal Care and Use Ethics Committee of Kangwon National University (KW-201204–3).

Data set [5] in a line: Human insulin level in mouse serum (ELISA). Particulars: HGM mice, insulin by osmotic pump 58.4 pmol/min/kg for 4 weeks, alone or with K8 polypeptide or K9-C-peptide, 10 weeks after streptozotocin, mean ± SD, n = 6. The data set is classed as in vivo. Here is the method: as §2
In data set [6] the test system is insulin-supplemented diabetic (HGM) mice. Description: Body weight, blood glucose, water and food consumption of HGM mice. The class given is in vivo, mouse. To be noted: 4 weeks of treatment, insulin vs diabetic, K9-C-peptide/K8 on top of insulin, n = 6. Here is the method: Six-week-old male C57BL/6 mice were obtained from DBL (EumSeong, Korea). […] Soo-Yul Kim (National Cancer Center, Goyang, Republic of Korea). Mice were maintained under pathogen-free conditions in a temperature-controlled room with a 12-h light/dark cycle. Diabetic mice were generated by single daily intraperitoneal injections of streptozotocin (50 mg/kg body weight; MilliporeSigma, Burlington, MA, USA) freshly prepared in 100 mM citrate buffer (pH 4.5) for 5 consecutive days, as previously described. The control group mice were injected with an equal volume of the citrate buffer. Mice with fasting blood glucose concentrations ≥ 19 mmol/L, polyuria, and glucosuria were considered diabetic. Mouse blood glucose levels and body weights were monitored weekly. […] One day after implantation of the osmotic pumps, human C-peptide was systemically supplemented by subcutaneous implantation of K9-C-peptide depots as previously described. […] The K9-C-peptide and K8 polypeptide were prepared by inverse transition cycling as previously described. Four weeks after the subcutaneous injections, sera and retinal, lung, and kidney tissues were obtained from the mice and analyzed. All animal experiments conformed to the Guide for the Care and Use of Laboratory Animals (National Institutes of Health; Bethesda, MD, USA) and were approved by the Institutional Animal Care and Use Ethics Committee of Kangwon National University (KW-201204–3).

Turning to `Cc1c(C)c2c(c(C)c1O)CCC(C)(C(=O)O)O2` (stereo not drawn) [Trolox], the “HGM-induced persistent TGase activation in HRECs” value in the data set on TGase is “inhibited”. The “HGM-induced persistent ROS generation in HRECs” value in data set [1] was “inhibited”.

For the compound `NCCSSCCN` [cystamine], the “HGM-induced persistent TGase activation in HRECs” value with TGase is “inhibited”. Moreover, the “HGM-induced persistent ROS generation in HRECs” value in data set [1] was “inhibited”.

Consider `CC(C)C[C@H](NC(=O)[C@H](C)NC(=O)[C@H](CC(C)C)NC(=O)[C@@H]1CCCN1C(=O)[C@H](CCC(N)=O)NC(=O)[C@H](CC(C)C)NC(=O)[C@H](CO)NC(=O)CNC(=O)[C@H](C)NC(=O)CNC(=O)[C@@H]1CCCN1C(=O)CNC(=O)CNC(=O)CNC(=O)[C@H](CC(C)C)NC(=O)[C@H](CCC(=O)O)NC(=O)[C@@H](NC(=O)[C@H](CCC(N)=O)NC(=O)CNC(=O)[C@@H](NC(=O)[C@H](CCC(N)=O)NC(=O)[C@H](CC(C)C)NC(=O)[C@H](CC(=O)O)NC(=O)[C@H](CCC(=O)O)NC(=O)[C@H](C)NC(=O)[C@@H](N)CCC(=O)O)C(C)C)C(C)C)C(=O)N[C@@H](CCC(=O)O)C(=O)NCC(=O)N[C@@H](CO)C(=O)N[C@@H](CC(C)C)C(=O)N[C@@H](CCC(N)=O)C(=O)O` [human C-peptide], for which the Circulating half-life entry in data set [2] is “approximately 30 min”.

As to `CN(C)c1ccc(O)c2c1C[C@H]1C[C@H]3[C@H](N(C)C)C(O)=C(C(N)=O)C(=O)[C@@]3(O)C(O)=C1C2=O` [minocycline], the “Effect on DR and DKD” value in data set [3] (DR in type 1 and DKD in type 2 diabetic mice, respectively) was “partially ameliorated”. In data set [3] (type 1 and type 2 diabetic mice (either animal model)), the “Effect on DPN” value is “failed to improve”.

As to “insulin: human recombinant insulin delivered by subcutaneous osmotic pump (HGM group)”, in data set [4], the “Serum C-peptide” value was “not detectable”. Also, the Serum human insulin entry in data set [5] is “in the physiological range”. In data set [6], the “Effect on blood glucose level (hyperglycemia)” value was “normalized”; the “Effect on body weight” value is on record as “normalized”; the “Effect on water and food consumption” value was “normalized”.
